Drawing on patent publication US9725414B2, “Fungicidal N-bicycloalkyl and N-tricycloalkyl pyrazole-4-(thio)carboxamide derivatives” (priority 2011, dated 2017), this text covers Efficacy and logP for 17 compounds.

Read-outs that look alike come from different tables or passages of the source.

Series [1] deals with Alternaria brassicae. The series can be described thus: Example D: in vivo preventive test on Alternaria brassicae (leaf spot on radish). The settings on record: grading 6 days after contamination. The method, then: In Vivo Preventive Test on Alternaria brassicae (Leaf Spot on Radish) […] Radish plants (“Pernod Clair” variety), sown in starter cups on a 50/50 peat soil pozzolana substrate and grown at 17° C., are treated at the cotyledon stage by spraying with the active ingredient prepared as described above. Plants, used as controls, are treated with the mixture of acetone/tween/DMSO/water not containing the active material. After 24 hours, the plants are contaminated by spraying the cotyledons with an aqueous suspension of Alternaria brassicae spores (50 000 spores per mL). The spores are collected from a 15-day-old culture. The contaminated radish plants are incubated at 20° C. and at 100% relative humidity. Grading (% of efficacy) is carried out 6 days after the contamination, in comparison with the control plants.

The subject of series [2] is Botrytis cinerea. The series can be described thus: Example P: in vivo preventive test on Botrytis cinerea (grey mould), gherkin plants. Particulars: 500 ppm of active ingredient, grading 4 to 5 days after contamination. As for the experimental part: In Vivo Preventive Test on Botrytis cinerea (Grey Mould) […] Gherkin plants (“Vert petit de Paris” variety), sown in starter cups on a 50/50 peat soil pozzolana substrate and grown at 24° C. are treated at the Z11 cotyledon stage by spraying with the active ingredient prepared as described above. Plants, used as controls, are treated with the mixture of acetone/tween/DMSO/water not containing the active material. After 24 hours, the plants are contaminated by spraying the cotyledons with an aqueous suspension of cryopreserved Botrytis cinerea spores (50 000 spores per mL). The spores are suspended in a nutrient solution composed of 10 g/L of PDB, 50 g/L of D-Fructose, 2 g/L of NH4NO3 and 1 g/L of KH2PO4. The contaminated gherkin plants are incubated at 17° C. and at 90% relative humidity. Grading (% of efficacy) is carried out 4 to 5 days after the contamination, in comparison with the control plants.

In series [3] the test system is Pyrenophora teres. The experiment in a line: Example F: in vivo preventive test on Pyrenophora teres (barley), acetone/tween/DMSO preparation. The settings on record: grading 14 days after contamination. The method, then: In Vivo Preventive Test on Pyrenophora teres (Barley) […] Barley plants (“Plaisant” variety), sown in starter cups on a 50/50 peat soil pozzolana substrate and grown at 22° C., are treated at the 1 leaf stage (10 cm height) by spraying with the active ingredient prepared as described above. Plants, used as controls, are treated with the mixture of acetone/tween/DMSO/water not containing the active material. After 24 hours, the plants are contaminated by spraying the leaves with an aqueous suspension of Pyrenophora teres spores (12 000 spores per mL). The spores are collected from a 12-day-old culture. […] Grading (% of efficacy) is carried out 14 days after the contamination, in comparison with the control plants.

A short description of series [4]: log P by HPLC on reversed-phase column (C 18), EEC Directive 79831 Annex V.A8. In kind it is physicochemical. The method, then: In table 1, the log P values were determined in accordance with EEC Directive 79831 Annex V.A8 by HPLC (High Performance Liquid Chromatography) on a reversed-phase column (C 18), using the method described below: Temperature: 40° C.; Mobile phases: 0.1% aqueous formic acid and acetonitrile; linear gradient from 10% acetonitrile to 90% acetonitrile. Calibration was carried out using unbranched alkan-2-ones (comprising 3 to 16 carbon atoms) with known log P values (determination of the log P values by the retention times using linear interpolation between two successive alkanones). lambda-max-values were determined using UV-spectra from 200 nm to 400 nm and the peak values of the chromatographic signals.

Series [5] deals with Septoria tritici. The series can be described thus: Example I: in vivo preventive test on Septoria tritici (wheat), acetone/tween/DMSO preparation. Particulars: 500 ppm of active ingredient, grading 24 days after contamination. As for the experimental part: In Vivo Preventive Test on Septoria tritici (Wheat) […] Wheat plants (“Scipion” variety), sown in starter cups on a 50/50 peat soil pozzolana substrate and grown at 22° C., are treated at the 1 leaf stage (10 cm height) by spraying with the active ingredient prepared as described above. Plants, used as controls, are treated with the mixture of acetone/tween/DMSO/water not containing the active material. After 24 hours, the plants are contaminated by spraying the leaves with an aqueous suspension of cryopreserved Septoria tritici spores (500 000 spores per mL). The contaminated wheat plants are incubated for 72 hours at 18° C. and at 100% relative humidity, and then for 21 days at 90% relative humidity. Grading (% of efficacy) is carried out 24 days after the contamination, in comparison with the control plants.

Series [6] deals with Sphaerotheca fuliginea. The experiment in a line: Example B: in vivo preventive test on Sphaerotheca fuliginea (powdery mildew on cucurbits), gherkin plants. The settings on record: 500 ppm of active ingredient, grading 12 days after contamination. As for the experimental part:
In Vivo Preventive Test on Sphaerotheca fuliginea (Powdery Mildew on Cucurbits) […] Gherkin plants (“Vert petit de Paris” variety), sown in starter cups on a 50/50 peat soil-pozzolana substrate and grown at 24° C. are treated at the Z11 cotyledon stage by spraying with the active ingredient prepared as described above. Plants, used as controls, are treated with the mixture of acetone/tween/DMSO/water not containing the active material. After 24 hours, the plants are contaminated by spraying the cotyledons with an aqueous suspension of Sphaerotheca fuliginea spores (100 000 spores per mL). The spores are collected from infected plants.

For series [7], the system named is Puccinia recondita. The experiment in a line: Example M: in vivo preventive test on Puccinia recondita (brown rust on wheat). Particulars: 500 ppm of active ingredient, grading 12 days after contamination. As for the experimental part:
In Vivo Preventive Test on Puccinia recondita (Brown Rust on Wheat) […] Wheat plants (“Scipion” variety), sown in starter cups on a 50/50 peat soil pozzolana substrate and grown at 22° C., are treated at the 1 leaf stage (10 cm height) by spraying with the active ingredient prepared as described above. Plants, used as controls, are treated with the mixture of acetone/tween/DMSO/water not containing the active material. After 24 hours, the plants are contaminated by spraying the leaves with an aqueous suspension of Puccinia recondite spores (100 000 spores per mL). The spores are collected from an infected plant and are suspended in water containing 2.5 mL/L of Tween 80 at 10%. […] Grading (% of efficacy) is carried out 12 days after the contamination, in comparison with the control plants.

The test system of series [8] is Uromyces appendiculatus. The experiment in a line: Example Q: in vivo preventive test on Uromyces appendiculatus (bean rust). The settings on record: Uromyces appendiculatus on bean plants, 500 ppm of active ingredient, grading 11 days after contamination. The method, then: In Vivo Preventive Test on Uromyces appendiculatus (Bean Rust) […] Bean plants (“Saxa” variety), sown in starter cups on a 50/50 peat soil pozzolana substrate and grown at 24° C., are treated at the 2 leaf stage (9 cm height) by spraying with the active ingredient prepared as described above. Plants, used as controls, are treated with the mixture of acetone/tween/DMSO/water not containing the active material. After 24 hours, the plants are contaminated by spraying the leaves with an aqueous suspension of Uromyces appendiculatus spores (150 000 spores per mL). The spores are collected from infected plants and are suspended in water containing 2.5 mL/L of Tween 80 at 10%. […] Grading (% of efficacy) is carried out 11 days after the contamination, in comparison with the control plants.

Setting [9] is: 500 ppm of active ingredient, barley.
[10] abbreviates: HPLC reversed-phase C 18, 40° C., 0.1% aqueous formic acid and acetonitrile gradient, several values = mixture of two or more isomers.
Setting [11] is: Pyrenophora teres on barley, 100 ppm of active ingredient.

For `Cn1nc(C(F)F)c(C(=O)NCC2C3CC4CC(C3)CC2C4)c1Cl` (stereo not drawn) [Example 91], the Efficacy turned out to be 96% in series [1] (500 ppm of active ingredient), 99% in series [2] and 75% in series [3] (setting [9]). Besides, in series [4] (setting [10]), the logP is given as 3.90.
In the case of `CC1C(NC(=O)c2c(C(F)F)nn(C)c2F)CC2CC1C2(C)C` (stereo not drawn) [Example 50], the Efficacy in series [5] turned out to be 97%; in series [1] (500 ppm of active ingredient), 80%; in series [6], 90%; in series [2], 99%; in series [3] (setting [9]), 88%. Also, in series [4] (setting [10]), the logP was determined as 3.61.
In the case of `CN(C(=O)c1c(C(F)F)nn(C)c1F)C1CCC2CCCCC21` (stereo not drawn) [Example 8], the values for the Efficacy in series [1] (100 ppm of active ingredient) and in series [3] (setting [11]) were 100% and 98%, respectively. The logP in series [4] came out at 3.35.
Turning to `Cn1nc(C(F)F)c(C(=O)N(CC2CCCC3CCCC32)C2CC2)c1F` (mixture of isomers) [Example 60], the Efficacy in series [1] (100 ppm of active ingredient) is recorded as 100%; in series [3] (setting [11]), 98%.
For `Cn1cc(C(=O)N(C2CC2)C2CCC3CCCC32)c(C(F)F)n1` (stereo not drawn) [Example 7], the Efficacy stood at 98% in series [7]; 97% in series [5]; 80% in series [1] (500 ppm of active ingredient); 100% in series [6]; 94% in series [8]; 100% in series [3] (setting [9]). Also, the lipophilicity (logP) in series [4] (setting [10]) is 3.19.
`Cn1nc(C(F)F)c(C(=O)N(C2CC2)C2CCC3CCCC32)c1F` (stereo not drawn) [Example 4]: the Efficacy in series [7] turned out to be 78%; in series [1] (500 ppm of active ingredient) it was 100%; in series [2] it was 80%; in series [3] (setting [9]), 100%. Moreover, in series [4] (setting [10]), the logP is given as 3.55.
For the compound `CON(C(=O)c1c(C(F)F)nn(C)c1F)C1CCC2CCCCC21` (stereo not drawn) [Example 10], the Efficacy is listed as 100% in series [7]; 93% in series [5]; 100% in series [1] (500 ppm of active ingredient); 100% in series [6]; 100% in series [8]; 93% in series [3] (setting [9]). Moreover, the log partition coefficient (logP) in series [4] (setting [10]) is given as 3.72.
Regarding `Cn1nc(C(F)F)c(C(=O)N(C2CC2)C2CCCC3CCCCC32)c1Cl` (stereo not drawn) [Example 32], the Efficacy in series [7] worked out at 98%; in series [5] it was 80%; in series [1] (500 ppm of active ingredient), 100%; in series [6] it was 100%; in series [8] it was 89%; in series [3] (setting [9]), 97%. In addition, the logP in series [4] (setting [10]) was 4.68.
For `CC1C(NC(=O)c2c(C(F)F)nn(C)c2F)CC2CC1C2(C)C` (stereo not drawn) [Example 49], the Efficacy in series [1] (500 ppm of active ingredient) was found to be 96%; in series [2] it was 98%; in series [3] (setting [9]) it was 88%. The lipophilicity (logP) in series [4] (setting [10]) is listed as 3.61.
For the compound `CC(C1CC2C=CC1C2)N(C(=O)c1c(C(F)F)nn(C)c1F)C1CC1` (mixture of isomers) [Example 101], the Efficacy in series [5] was 100%; in series [1] (500 ppm of active ingredient), 92%; in series [6], 100%; in series [2] it was 98%; in series [3] (setting [9]), 100%.
Regarding `Cn1cc(C(=O)N(CC2CCCC3CCCC32)C2CC2)c(C(F)F)n1` (mixture of isomers) [Example 61], the Efficacy in series [1] (100 ppm of active ingredient) is reported as 92%; in series [3] (setting [11]), 100%.
Turning to `Cn1cc(C(=O)NCC2C3CC4CC(C3)CC2C4)c(C(F)F)n1` (stereo not drawn) [Example 92], the values for the Efficacy in series [5], in series [1] (500 ppm of active ingredient) and in series [2] were 83%, 96% and 100%, respectively. In addition, in series [4] (setting [10]), the lipophilicity (logP) was 3.27.
`Cn1nc(C(F)F)c(C(=O)N(CC2CCCC3CCCCC32)C2CC2)c1Cl` (stereo not drawn) [Example 67]: the Efficacy came to 97% in series [7]; 94% in series [5]; 97% in series [1] (500 ppm of active ingredient); 100% in series [6]; 87% in series [8]; 98% in series [3] (setting [9]). In addition, the lipophilicity (logP) in series [4] (setting [10]) was found to be 5.08.
Turning to `Cn1nc(C(F)F)c(C(=O)N(C2CC2)C2CCC3CCCC32)c1F` (stereo not drawn) [Example 5], the Efficacy in series [7] is on record as 100%; in series [5] it was 100%; in series [1] (500 ppm of active ingredient) it was 100%; in series [6], 98%; in series [8], 100%; in series [3] (setting [9]), 97%. Moreover, in series [4] (setting [10]), the logP is 3.65.
Consider `Cn1nc(C(F)F)c(C(=O)NCC2C3CC4CC(C3)CC2C4)c1F` (stereo not drawn) [Example 90], for which the Efficacy in series [5] came to 92%; in series [1] (500 ppm of active ingredient), 90%; in series [2], 100%; in series [3] (setting [9]), 81%. The logP in series [4] (setting [10]) turned out to be 3.68.
On to `CON(C(=O)c1cn(C)nc1C(F)F)C(C)C1CC2CCC1C2` (stereo not drawn) [Example 100], for which the Efficacy is listed as 90% in series [7]; 100% in series [6]; 100% in series [8]; 100% in series [2]; 100% in series [3] (setting [9]). Further, the logP in series [4] (setting [10]) is recorded as 3.42.
Turning to `CN(C(=O)c1cn(C)nc1C(F)F)C1CCC2CCCCC21` (stereo not drawn) [Example 9], the figures for the Efficacy in series [1] (100 ppm of active ingredient) and in series [3] (setting [11]) were 100% and 75%, respectively. The compound also came in with a logP in series [4] of 2.88.
